Data taken from patent US10138232B2, “Naphthyridinedione derivatives” (NOVARTIS AG, priority 2014, dated 2018).

Tested on: CFTR-Y122X (GFP-CFTR-Y122X-Renilla construct) in Hek293 cell lines
Test: CFTR-Y122X assay (dual reporter readthrough, Renilla luminescence)
Format: cell-based
Conditions: Homo sapiens; for AC50: nonsense mutation suppression in the CFTR-Y122X assay; for AC50 / Emax: compounds incubated 24 h, tested up to 100 μM; for Emax: nonsense mutation suppression, 100% activity = 14 mM paromomycin, read-out: Amax
Description: In particular, compounds of formula (I), (I′), (Ia), (Ia′) or (Ib) I act as nonsense mutation suppressors on frequent PTCs, e.g. on Y122X in the mRNA of the cystic fibrosis conductance regulator protein (CFTR). This can be determined in vitro, for example, using cell lines expressing GFP-CFTR-Y122X-Renilla constructs as described herein.
Activity of compounds of the present invention was examined in recombinant, dual reporter isogenic Hek293 cell lines (“CFTR-Y122X assay”). The engineered reporter constructs contained the 18 bp sequence strech corresponding to a common Y122X PTC mutation in CFTR class I mutant patients (see Sermet-Gaudelus, BMC Medicine, 2007, 5(5)). Instead of a tyrosine (Y) in position 122 of the CFTR protein a TGA stop codon interrupts the open reading frame (Y122X) of the corresponding mRNA. This TGA stop codon triplet (followed by the pyrimidine base cytosine) is permissive to aminoglycoside mediated translational readthrough which served as positive control for high throughput screening. A corresponding TAA stop codon variant and a wildtype non mutated construct was used for confirmation and counter screening. The CFTR sequence was sandwiched between an eGFP reporter, and a triple myc tag sequence fused to a full length Renilla reporter. All sequences, including an intron containing one positioned pre-eGFP (b-globin intron) were cloned in frame. The corresponding expression constructs were stably expressed in the isogenic HEK-R4 cell host (Invitrogen Incorp.) and selected by blasticidin resistance. The isogenic integration of the construct minimizes gene dose effects and improves assay reproducibility. Stably integrated single cell derived clones were selected and characterized for aminoglycoside mediated readthrough. […] Readthrough of Y122X accumulates an intracellular localized fusion protein approximately 65.5 kDa in size as controlled by western blot analysis and immunofluorescence using an anti-renilla antibody. The eGFP reporter pre-PTC mutation serves as visual control for genetic stability of the screening clones and minimizes protein degradation of small fusion protein amounts. In the assay, compound concentration was 10 μM. In miniaturized 1536 well format 2000 cells were dispensed in 4 μl/well and incubated for 24 h at 37° C., 5% CO2. 40 nl compounds were placed on the cells with control wells containing 1 ul Paramomycin and 14.4 mM final concentration. Compounds were incubated for 24 h. Renilla Glo substrate (2.5 ul) was added and plates were centrifuged and processed for luminescence measurement using various readers. Activity calculation was done using the equation: A1(%)=100*(S−NC)/(AC−NC) where AC, NC and S correspond to active controls (injection of Stimulation buffer=100% stimulation), neutral controls (buffer injection which Iloprost EC10) and screening samples (S). NC corresponds to 0% activity whereas AC is 100% activity (14 mM paromomycin). False positive artefacts were removed in confirmation and validation screening using the same assay format followed by counterscreening using the respective wildtype construct (w/o PTC mutation) cell model. Compounds were tested up to 100 μM compound concentration.

Row | Structure (SMILES) | AC50 [µM] | Emax [%] | EC50 (clone pursued for HTS assay development, read-out: EC50 (response of selected clone, aminoglycoside mediated readthrough)) [µM]
1 | CC(C)c1c(Br)c2c(c(=O)c3ccccc3n2C)c(=O)n1-c1ccccc1 [Example 3.3, 4-bromo-3-isopropyl-5-methyl-2-phenylbenzo[b][1,6]naphthyridine-1,10(2H,5H)-dione] | 18.8 | 122 | 
2 | Cn1c2c(c(=O)c3c(=O)n(-c4ccccc4)c(C4CCC4)cc31)CCC2 [Example 1.24, 3-cyclobutyl-5-methyl-2-phenyl-5,6,7,8-tetrahydro-1H-cyclopenta[b][1,6]naphthyridine-1,9(2H)-dione] | 18.4 | 157 | 
3 | COc1ccc2c(c1)c(=O)c1c(=O)n(-c3ccccc3)c(C(C)C)cc1n2C [Example 1.49] |  | 17 | 
4 | CC(C)c1cc2c(c(=O)c3ccccc3n2C)c(=O)n1N1CCCC1 [Example 2.12, 3-isopropyl-5-methyl-2-(pyrrolidin-1-yl)benzo[b][1,6]naphthyridine-1,10(2H,5H)-dione] | 1.7 | 178 | 
5 | O=c1c2ccccc2[nH]c2cc(C3CCC3)n(-c3ccccc3)c(=O)c12 [Example 1.1, 3-Cyclobutyl-2-phenylbenzo[b][1,6]naphthyridine-1,10(2H,5H)-dione] | 0.6 | 219 | 
6 | Cc1cc2c(=O)c3c(=O)n(-c4ccccc4)c(C4CCC4)cc3[nH]c2s1 [Example 1.33, 7-cyclobutyl-2-methyl-6-phenylthieno[2,3-b][1,6]naphthyridine-4,5(6H,9H)-dione] | 19.4 | 243 | 
7 | O=c1c2ccsc2[nH]c2cc(C3CCC3)n(-c3ccccc3)c(=O)c12 [Example 1.32, 7-cyclobutyl-6-phenylthieno[2,3-b][1,6]naphthyridine-4,5(6H,9H)-dione] | 4.2 | 247 | 
8 | Cc1ccc2[nH]c3cc(C(C)C)n(-c4ccccc4)c(=O)c3c(=O)c2c1 [Example 1.9, 3-isopropyl-8-methyl-2-phenylbenzo[b][1,6]naphthyridine-1,10(2H,5H)-dione] | 1.2 | 249 | 
9 | O=c1c2cc(Cl)ccc2[nH]c2cc(C3CCC3)n(-c3ccccc3)c(=O)c12 [Example 1.40, 8-chloro-3-cyclobutyl-2-phenylbenzo[b][1,6]naphthyridine-1,10(2H,5H)-dione] | 1 | 300 | 
10 | O=c1c2c([nH]c3cc(C4CCC4)n(-c4ccccc4)c(=O)c13)CCCC2 [Example 1.30, 3-cyclobutyl-2-phenyl-6,7,8,9-tetrahydrobenzo[b][1,6]naphthyridine-1,10(2H,5H)-dione] | 0.7 | 324 | 
11 | CC(C)c1cc2[nH]c3ccccc3c(=O)c2c(=O)n1-c1ccccc1 [Example 1.3, 3-isopropyl-2-phenylbenzo[b][1,6]naphthyridine-1,10(2H,5H)-dione] | 1.1 | 281 | 
12 | COc1cccc2c(=O)c3c(=O)n(-c4ccccc4)c(C4CCC4)cc3n(C)c12 [Example 1.46, 3-cyclobutyl-6-methoxy-5-methyl-2-phenylbenzo[b][1,6]naphthyridine-1,10(2H,5H)-dione] | 3.4 | 247 | 
13 | CC(C)c1cc2[nH]c3c(c(=O)c2c(=O)n1-c1ccccc1)CCC3 [Example 1.23, 3-isopropyl-2-phenyl-5,6,7,8-tetrahydro-1H-cyclopenta[b][1,6]naphthyridine-1,9(2H)-dione] | 5.2 | 414 | 
14 | CC(C)c1cc2[nH]c3ccccc3c(=O)c2c(=O)n1N1CCCC1 [Example 2.11, 3-isopropyl-2-(pyrrolidin-1-yl)benzo[b][1,6]naphthyridine-1,10(2H,5H)-dione] | 0.9 |  | 
15 | O=c1c2ccccc2[nH]c2cc(C3CCC3)n(C3CCCC3)c(=O)c12 [Example 2.1, 3-cyclobutyl-2-cyclopentylbenzo[b][1,6]naphthyridine-1,10(2H,5H)-dione] | 0.5 | 229 | 
16 | NC[C@@H]1O[C@H](O[C@H]2[C@@H](O)[C@H](O[C@@H]3[C@@H](O)[C@H](N)C[C@H](N)[C@H]3O[C@H]3O[C@H](CO)[C@@H](O)[C@H](O)[C@H]3N)O[C@@H]2CO)[C@H](N)[C@@H](O)[C@@H]1O [paromomycin, reference compound] |  |  | 1500

Row | Structure (SMILES) | AC50 [µM] | Emax [%] | EC50 (clone pursued for HTS assay development, read-out: EC50 (response of selected clone, aminoglycoside mediated readthrough)) [µM]
17 | O=c1c2c([nH]c3cc(C4CCC4)n(-c4ccccc4)c(=O)c13)CCC2 [Example 1.26, 3-cyclobutyl-2-phenyl-5,6,7,8-tetrahydro-1H-cyclopenta[b][1,6]naphthyridine-1,9(2H)-dione] | 3.3 | 229 | 
18 | CC(C)c1cc2[nH]c3ccccc3c(=O)c2c(=O)n1C1CCCC1 [Example 2.3, 2-cyclopentyl-3-isopropylbenzo[b][1,6]naphthyridine-1,10(2H,5H)-dione] | 0.4 | 235 | 
19 | Cn1c2ccsc2c(=O)c2c(=O)n(-c3ccccc3)c(C3CCC3)cc21 [Example 1.34, 6-cyclobutyl-4-methyl-7-phenylthieno[3,2-b][1,6]naphthyridine-8,9(4H,7H)-dione] | 1 | 263 | 
20 | CC(C)c1cc2[nH]c3sccc3c(=O)c2c(=O)n1C1CCCC1 [Example 2.15, 6-cyclopentyl-7-isopropylthieno[2,3-b][1,6]naphthyridine-4,5(6H,9H)-dione] |  | 124 | 
21 | CC(C)c1cc2[nH]c3sccc3c(=O)c2c(=O)n1-c1ccccc1 [Example 1.12, 7-isopropyl-6-phenylthieno[2,3-b][1,6]naphthyridine-4,5(6H,9H)-dione] | 19 | 248 | 
22 | Cn1c2cc(C3CCC3)n(-c3ccccc3)c(=O)c2c(=O)c2ccsc21 [Example 1.29, 7-cyclobutyl-9-methyl-6-phenylthieno[2,3-b][1,6]naphthyridine-4,5(6H,9H)-dione] | 0.7 | 286 | 
23 | Cn1c2ccccc2c(=O)c2c(=O)n(C3CCCC3)c(C3CCC3)cc21 [Example 2.2, 3-cyclobutyl-2-cyclopentyl-5-methylbenzo[b][1,6]naphthyridine-1,10(2H,5H)-dione] | 2.1 | 262 | 
24 | COc1cccc2c(=O)c3c(=O)n(-c4ccccc4)c(C4CCC4)cc3[nH]c12 [Example 1.48, 3-cyclobutyl-6-methoxy-2-phenylbenzo[b][1,6]naphthyridine-1,10(2H,5H)-dione] | 1.8 | 227 | 
25 | CC(C)c1c(Cl)c2c(c(=O)c3ccccc3n2C)c(=O)n1-c1ccccc1 [Example 3.2, 4-chloro-3-isopropyl-5-methyl-2-phenylbenzo[b][1,6]naphthyridine-1,10(2H,5H)-dione] | 17.2 | 220 | 
26 | CC(C)c1cc2c(c(=O)c3ccsc3n2C)c(=O)n1-c1ccccc1 [Example 1.13, 7-isopropyl-9-methyl-6-phenylthieno[2,3-b][1,6]naphthyridine-4,5(6H,9H)-dione] | 8.6 | 445 | 
27 | Cc1c(C)n(C)c2cc(C3CCC3)n(-c3ccccc3)c(=O)c2c1=O [Example 1.25, 7-cyclobutyl-1,2,3-trimethyl-6-phenyl-1,6-naphthyridine-4,5(1 H,6H)-dione] | 16.8 | 87 | 
28 | COc1ccc2[nH]c3cc(C(C)C)n(-c4ccccc4)c(=O)c3c(=O)c2c1 [Example 1.50, 3-isopropyl-8-methoxy-2-phenylbenzo[b][1,6]naphthyridine-1,10(2H,5H)-dione] | 16.9 | 110 | 
29 | Cc1cc2c(s1)c(=O)c1c(=O)n(-c3ccccc3)c(C3CCC3)cc1n2C [Example 1.36, 6-cyclobutyl-2,4-dimethyl-7-phenylthieno[3,2-b][1,6]naphthyridine-8,9(4H,7H)-dione] | 4.1 | 177 | 
30 | CC(C)c1cc2c(c(=O)c3ccccc3n2C)c(=O)n1-c1ccccc1 [Example 1.4, 3-isopropyl-5-methyl-2-phenylbenzo[b][1,6]naphthyridine-1,10(2H,5H)-dione] | 3.2 | 324 | 
31 | CC(C)c1cc2c(c(=O)c3cc(F)ccc3n2C)c(=O)n1-c1ccccc1 [Example 1.6, 8-fluoro-3-isopropyl-5-methyl-2-phenylbenzo[b][1,6]naphthyridine-1,10(2H,5H)-dione] | 7.7 | 507 | 
